# Reference: US20250368649A1, “TETRAHYDROPYRIDOPYRIMIDINE PAN-KRAS INHIBITORS” (Mirati Therapeutics, Inc., priority 2022, published 2025)
# Tests used:
# A549 cells = test: Inhibition of KRas-mediated phosphorylation of ERK (Cisbio HTRF pERK), A549 cells; format: cell-based; settings: Homo sapiens, A549, 3 h, 3 hr compound incubation
# PSN1 cells = test: Inhibition of KRas-mediated phosphorylation of ERK (Cisbio HTRF pERK), PSN1 cells; format: cell-based; settings: Homo sapiens, PSN1, 3 h
# Method in brief: (§1)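 Cells were seeded on day 1 at 6,000 per well in RPMI containing 10% FBS before compound treatment and phospho-ERK detection.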
# H727 cells = test: Inhibition of KRas-mediated phosphorylation of ERK (Cisbio HTRF pERK), H727 cells; format: cell-based; settings: Homo sapiens, NCI-H727, 3 h, 3 hr compound incubation
# H358 cells = test: Inhibition of KRas-mediated phosphorylation of ERK (Cisbio HTRF pERK), H358 cells; format: cell-based; settings: Homo sapiens, NCI-H358, 3 h, 3 hr compound incubation
# KRas G12S = KRas G12S (Homo sapiens, UniProt P01116, G12S); format: binding; settings: TR-FRET displacement, read-out: Binding to KRas (IC50 nM) G12S
# HCT116 cells = test: Inhibition of KRas-mediated phosphorylation of ERK (Cisbio HTRF pERK), HCT116 cells; format: cell-based; settings: Homo sapiens, HCT-116, 3 h, 3 hr compound incubation
# ASPC1 cells = test: Inhibition of KRas-mediated phosphorylation of ERK (Cisbio HTRF pERK), ASPC1 cells; format: cell-based; settings: Homo sapiens, ASPC1, 3 h, AsPC-1 cells, 3 hr compound incubation
# KRas G12D = KRas G12D (Homo sapiens, UniProt P01116, G12D); test: biochemical; settings: Binding to KRas (IC50 nM) G12D, TR-FRET displacement, KRas G12D
# MKN1 cells = test: Inhibition of KRas-mediated phosphorylation of ERK (Cisbio HTRF pERK), MKN1 cells; format: cell-based; settings: Homo sapiens
# Method in brief: as §1
# KRas G12V = KRas G12V (Homo sapiens, UniProt P01116, G12V); test: biochemical; settings: Binding to KRas (IC50 nM) G12V, TR-FRET displacement, KRas G12V
# KRas G12C = KRas G12C (Homo sapiens, UniProt P01116, G12C); format: binding; settings: TR-FRET displacement, read-out: Binding to KRas (IC50 nM) G12C
# H460 cells = test: Inhibition of KRas-mediated phosphorylation of ERK (Cisbio HTRF pERK), H460 cells; format: cell-based; settings: Homo sapiens, NCI-H460, 3 h, 3 hr compound incubation
# KRas WT = KRas WT (Homo sapiens, UniProt P01116); test: KRas binding assay (TR-FRET displacement), KRas WT; settings: TR-FRET displacement
# KRas Q61H = KRas Q61H (Homo sapiens, UniProt P01116, Q61H); test: KRas binding assay (TR-FRET displacement), KRas Q61H; settings: TR-FRET displacement
# KRas G12R = KRas G12R (Homo sapiens, UniProt P01116, G12R); test: biochemical; settings: Binding to KRas (IC50 nM) G12R, TR-FRET displacement, KRas G12R
# KRas G12A = KRas G12A (Homo sapiens, UniProt P01116, G12A); format: binding; settings: TR-FRET displacement, read-out: Binding to KRas (IC50 nM) G12A
# KRas G13D = KRas G13D (Homo sapiens, UniProt P01116, G13D); format: binding; settings: TR-FRET displacement, read-out: Binding to KRas (IC50 nM) G13D
# [1] = 3 hour compound incubation, Cisbio pERK HTRF
# [2] = MKN-1, 3 hour compound incubation, Cisbio pERK HTRF
# Chain of KRas G12C (P01116 1-169 isoform P01116-2 G12C): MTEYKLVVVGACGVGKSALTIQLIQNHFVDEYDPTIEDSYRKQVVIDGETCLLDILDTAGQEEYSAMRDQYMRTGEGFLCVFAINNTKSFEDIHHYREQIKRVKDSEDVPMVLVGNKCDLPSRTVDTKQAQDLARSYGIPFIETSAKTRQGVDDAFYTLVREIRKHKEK
# Chain of KRas G12S (P01116 1-169 isoform P01116-2 G12S): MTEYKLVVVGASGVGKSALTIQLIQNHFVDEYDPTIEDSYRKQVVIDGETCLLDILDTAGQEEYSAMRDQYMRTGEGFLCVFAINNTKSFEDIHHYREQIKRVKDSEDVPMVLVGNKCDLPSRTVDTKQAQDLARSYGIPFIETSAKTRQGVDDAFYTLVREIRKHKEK
# Chain of KRas WT (P01116 1-169 isoform P01116-2): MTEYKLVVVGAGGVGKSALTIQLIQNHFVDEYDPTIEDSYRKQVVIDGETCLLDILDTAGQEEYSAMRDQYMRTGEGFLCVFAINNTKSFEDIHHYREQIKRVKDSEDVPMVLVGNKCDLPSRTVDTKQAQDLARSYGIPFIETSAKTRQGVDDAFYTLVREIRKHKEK
# Chain of KRas G12D (P01116 1-169 isoform P01116-2 G12D): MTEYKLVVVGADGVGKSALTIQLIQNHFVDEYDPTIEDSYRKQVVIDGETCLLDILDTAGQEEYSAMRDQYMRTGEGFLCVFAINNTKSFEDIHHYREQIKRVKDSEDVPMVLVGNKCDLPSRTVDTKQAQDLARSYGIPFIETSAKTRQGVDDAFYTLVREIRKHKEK
# Chain of KRas G12V (P01116 1-169 isoform P01116-2 G12V): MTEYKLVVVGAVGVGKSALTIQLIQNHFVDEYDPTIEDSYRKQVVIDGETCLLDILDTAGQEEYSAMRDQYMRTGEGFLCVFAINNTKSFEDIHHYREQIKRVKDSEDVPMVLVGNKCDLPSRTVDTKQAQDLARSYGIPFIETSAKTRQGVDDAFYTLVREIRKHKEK
# Chain of KRas G13D (P01116 1-169 isoform P01116-2 G13D): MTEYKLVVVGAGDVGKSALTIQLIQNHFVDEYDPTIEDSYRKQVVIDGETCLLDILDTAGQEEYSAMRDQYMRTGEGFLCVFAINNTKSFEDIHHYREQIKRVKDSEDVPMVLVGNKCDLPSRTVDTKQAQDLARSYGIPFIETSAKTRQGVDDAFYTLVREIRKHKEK
# Chain of KRas G12R (P01116 1-169 isoform P01116-2 G12R): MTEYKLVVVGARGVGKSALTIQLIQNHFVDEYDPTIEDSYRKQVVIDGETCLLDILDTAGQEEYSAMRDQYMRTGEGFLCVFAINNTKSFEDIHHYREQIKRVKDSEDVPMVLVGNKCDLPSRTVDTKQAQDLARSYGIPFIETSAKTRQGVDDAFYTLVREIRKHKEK
# Chain of KRas Q61H (P01116 1-169 isoform P01116-2 Q61H): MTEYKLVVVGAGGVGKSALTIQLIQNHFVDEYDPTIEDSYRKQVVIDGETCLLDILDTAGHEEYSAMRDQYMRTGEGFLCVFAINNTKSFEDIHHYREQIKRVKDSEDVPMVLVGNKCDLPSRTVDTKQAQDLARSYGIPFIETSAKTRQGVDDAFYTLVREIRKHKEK
# Chain of KRas G12A (P01116 1-169 isoform P01116-2 G12A): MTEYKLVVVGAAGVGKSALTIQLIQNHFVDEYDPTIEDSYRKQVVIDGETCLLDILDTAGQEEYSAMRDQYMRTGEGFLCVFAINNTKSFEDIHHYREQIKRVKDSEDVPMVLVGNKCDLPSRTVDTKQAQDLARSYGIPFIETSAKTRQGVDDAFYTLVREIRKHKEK
SMILES,IC50 (KRas G12S) [nM],IC50 (KRas G12D) [nM],IC50 (KRas G12V) [nM],IC50 (KRas G12C) [nM],IC50 (KRas WT) [nM],IC50 (PSN1 cells; [1]) [nM],IC50 (H727 cells; Cisbio pERK HTRF) [nM],IC50 (ASPC1 cells; Cisbio pERK HTRF) [nM],IC50 (MKN1 cells; [2]) [nM],IC50 (A549 cells; Cisbio pERK HTRF) [nM],IC50 (H358 cells; Cisbio pERK HTRF) [nM],IC50 (HCT116 cells; Cisbio pERK HTRF) [nM],IC50 (H460 cells; Cisbio pERK HTRF) [nM],other results
"C[C@@H]1C[C@@H]1c1c(Cl)cc(O)cc1N1CCc2c(nc(OC[C@@]34CCCN3C[C@H](F)C4)nc2N2CCCn3nc(C(=O)N(C)C)cc3C2)C1 (stereo in doubt) [Example 656, 5-(7-(3-chloro-5-hydroxy-2-(cis-2-methylcyclopropyl)phenyl)-2-(((2R,7aS)-2-fluorotetrahydro-1H-pyrrolizin-7a(5H)-yl)methoxy)-5,6,7,8-tetrahydropyrido[3,4-d]pyrimidin-4-yl)-N,N-dimethyl-5,6,7,8-tetrahydro-4H-pyrazolo[1,5-a][1,4]diazepine-2-carboxamide]",2,< 2,< 2,2,5,,,,,,,,,"IC50 (A549 cells): 294 nM; IC50 (PSN1 cells; 3 hr compound incubation): > 10000 nM; IC50 (H727 cells): 100 nM; IC50 (H358 cells): 54 nM; IC50 (HCT116 cells): 1220 nM; IC50 (ASPC1 cells): 82 nM; IC50 (MKN1 cells; MKN-1, 3 hr compound incubation): 4.5 nM; IC50 (H460 cells): 307 nM"
"C[C@@H]1C[C@@H]1c1c(Cl)cc2[nH]ncc2c1N1CCc2c(nc(OCC34CCCN3CCC4)nc2N2CCC[C@]3(C2)NC(=O)NC3=O)C1 [Example 449, (R)-7-(7-(6-chloro-5-((1S,2R)-2-methylcyclopropyl)-1H-indazol-4-yl)-2-((hexahydro-1H-pyrrolizin-7a-yl)methoxy)-5,6,7,8-tetrahydropyrido[3,4-d]pyrimidin-4-yl)-1,3,7-triazaspiro[4.5]decane-2,4-dione]",< 2,3,< 2,< 2,< 2,> 10000,2690,5760,53.7,,,,,IC50 (KRas Q61H): < 2 nM; IC50 (KRas G12R): < 2 nM; IC50 (KRas G12A): < 2 nM; IC50 (KRas G13D): < 2 nM
"CCc1c(F)ccc2cc(O)cc(N3CCc4c(nc(OCC56CCCN5C/C(=C\F)C6)nc4N4CCC[C@@](C)(O)C4)C3)c12 (stereo partly drawn) [Example 574, (3R)-1-(7-(8-ethyl-7-fluoro-3-hydroxynaphthalen-1-yl)-2-(((Z)-2-(fluoromethylene)tetrahydro-1H-pyrrolizin-7a(5H)-yl)methoxy)-5,6,7,8-tetrahydropyrido[3,4-d]pyrimidin-4-yl)-3-methylpiperidin-3-ol]",< 2,< 2,< 2,< 2,< 2,442,25,13,0.4,16,5,18,12,
"CCc1c(F)ccc2cc(O)cc(N3CCc4c(nc(OCC56CCCN5C/C(=C\F)C6)nc4N4C[C@@H]5C[C@H](C4)[C@H](O)C5)C3)c12 (stereo partly drawn) [Example 576, (1R,5R,6R)-3-(7-(8-ethyl-7-fluoro-3-hydroxynaphthalen-1-yl)-2-(((Z)-2-(fluoromethylene)tetrahydro-1H-pyrrolizin-7a(5H)-yl)methoxy)-5,6,7,8-tetrahydropyrido[3,4-d]pyrimidin-4-yl)-3-azabicyclo[3.2.1]octan-6-ol]",< 2,4,< 2,3,3,2760,57,88,5.8,61,49,137,57,
